Values of other authors, collected in patent EP1803441A1 (Teva Pharmaceutical Industries Ltd, priority 2005, dated 2007).

Key:
[1] = orally administered tablets
[2] = oral administration

increase of the extent of absorption when tablets are taken with food [1]: approximately 35%
part of a single dose excreted in the feces [2]: 25%
Compound: CC(C)OC(=O)C(C)(C)Oc1ccc(C(=O)c2ccc(Cl)cc2)cc1 [fenofibrate, 2-[4-(4-chlorobenzoyl)phenoxy]-2-methyl-propanoic acid, 1-methylethyl ester]
